In PubChem BioAssay (NCI):
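Five compound concentrations were applied to cells in 96-well plates for 48 hours; endpoints were derived by simple linear interpolation of the resulting dose-response curve. GI50: concentration for 50% inhibition of growth. The concentration for full growth arrest is given as TGI.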

What was measured:
Assay in all cases: NCI tumour cell line growth inhibition, 48 h
[1] = test system: 786-0 renal
[2] = test system: A498 renal
[3] = test system: A549 NSCLC
[4] = test system: ACHN renal
[5] = test system: BT-549 breast
[6] = test system: CAKI-1 renal
[7] = test system: CCRF-CEM leukemia
[8] = test system: COLO 205 colon
[9] = test system: DU-145 prostate
[10] = test system: EKVX NSCLC
[11] = test system: HCC-2998 colon
[12] = test system: HCT-116 colon
[13] = test system: HCT-15 colon
[14] = test system: HL-60(TB) leukemia
[15] = test system: HOP-62 NSCLC
[16] = test system: HS 578T breast
[17] = test system: HT29 colon
[18] = test system: IGROV1 ovarian
[19] = test system: K-562 leukemia
[20] = test system: KM12 colon
[21] = test system: LOX IMVI melanoma
[22] = test system: M14 melanoma
[23] = test system: MALME-3M melanoma
[24] = test system: MCF7 breast
[25] = test system: MDA-MB-231 breast
[26] = test system: MDA-MB-435
[27] = test system: MOLT-4 leukemia
[28] = test system: NCI-H226 lung
[29] = test system: NCI-H23 lung
[30] = test system: NCI-H460 lung
[31] = test system: NCI-H522 lung
[32] = test system: NCI/ADR-RES ovarian
[33] = test system: OVCAR-3 ovarian
[34] = test system: OVCAR-4 ovarian
[35] = test system: OVCAR-5 ovarian
[36] = test system: OVCAR-8 ovarian
[37] = test system: PC-3 prostate
[38] = test system: RPMI-8226 leukemia
[39] = test system: SF-268 CNS
[40] = test system: SF-295 CNS
[41] = test system: SF-539 CNS
[42] = test system: SK-MEL-2 melanoma
[43] = test system: SK-MEL-28 melanoma
[44] = test system: SK-MEL-5 melanoma
[45] = test system: SK-OV-3 ovarian
[46] = test system: SN12C renal
[47] = test system: SNB-19 CNS
[48] = test system: SNB-75 CNS
[49] = test system: SR leukemia
[50] = test system: SW-620 colon
[51] = test system: T-47D breast
[52] = test system: TK-10 renal
[53] = test system: U251 CNS
[54] = test system: UACC-257 melanoma
[55] = test system: UACC-62 melanoma
[56] = test system: UO-31 renal

COc1cc(OC)cc(C2C3=C(COC3=O)Nc3cc(OC)ccc32)c1 (configuration not stated)
GI50 [1]: 20.3 nM | TGI [1]: 30900 nM | GI50 [2]: < 10 nM | TGI [2]: < 10.6 nM | GI50 [3]: < 10 nM | TGI [3]: 27700 nM | GI50 [4]: < 10 nM | TGI [4]: 33900 nM | GI50 [5]: 13.8 nM | TGI [5]: > 100000 nM | GI50 [6]: < 10 nM | TGI [6]: > 100000 nM | GI50 [7]: < 10 nM | TGI [7]: > 100000 nM | GI50 [8]: < 10 nM | TGI [8]: < 10 nM | GI50 [9]: < 10 nM | TGI [9]: 48.6 nM | GI50 [10]: < 10 nM | TGI [10]: > 100000 nM | GI50 [11]: < 10 nM | GI50 [12]: < 10 nM | TGI [12]: 413 nM | GI50 [13]: < 10 nM | TGI [13]: > 42600 nM | GI50 [14]: < 10 nM | TGI [14]: < 18.6 nM | GI50 [15]: < 10 nM | TGI [15]: 21700 nM | GI50 [16]: < 10 nM | TGI [16]: > 64300 nM | GI50 [17]: < 10 nM | TGI [17]: > 36600 nM | GI50 [18]: < 10 nM | TGI [18]: > 94500 nM | GI50 [19]: < 10 nM | TGI [19]: 13400 nM | GI50 [20]: < 10 nM | TGI [20]: < 10.6 nM | GI50 [21]: < 10 nM | TGI [21]: > 44100 nM | GI50 [22]: < 10 nM | TGI [22]: 11.1 nM | GI50 [23]: 13500 nM | TGI [23]: > 100000 nM | GI50 [24]: < 10 nM | TGI [24]: 19900 nM | GI50 [25]: < 12.8 nM | GI50 [26]: < 10 nM | TGI [26]: < 10 nM | GI50 [27]: < 10 nM | GI50 [28]: < 10 nM | TGI [28]: 20.7 nM | GI50 [29]: < 10 nM | TGI [29]: > 43700 nM | GI50 [30]: < 10 nM | TGI [30]: 495 nM | GI50 [31]: < 10 nM | TGI [31]: 836 nM | GI50 [32]: < 10 nM | GI50 [33]: < 10 nM | TGI [33]: < 10 nM | GI50 [34]: < 10 nM | TGI [34]: 37600 nM | GI50 [35]: < 20.1 nM | TGI [35]: > 100000 nM | GI50 [36]: < 14.3 nM | TGI [36]: > 37500 nM | GI50 [37]: < 10 nM | TGI [37]: > 42300 nM | GI50 [38]: < 10 nM | TGI [38]: > 43900 nM | GI50 [39]: < 10.6 nM | TGI [39]: > 61800 nM | GI50 [40]: < 10 nM | TGI [40]: 28200 nM | GI50 [41]: < 10 nM | TGI [41]: 15700 nM | GI50 [42]: 335 nM | TGI [42]: > 100000 nM | GI50 [43]: < 10 nM | TGI [43]: > 94200 nM | GI50 [44]: < 10 nM | TGI [44]: 17.8 nM | GI50 [45]: < 10 nM | TGI [45]: < 10 nM | GI50 [46]: 14.6 nM | TGI [46]: > 77600 nM | GI50 [47]: 17.8 nM | TGI [47]: > 100000 nM | GI50 [48]: < 10 nM | TGI [48]: 24100 nM | GI50 [49]: < 10 nM | GI50 [50]: < 10 nM | TGI [50]: > 70800 nM | GI50 [51]: < 10 nM | TGI [51]: > 100000 nM | GI50 [52]: 22200 nM | TGI [52]: > 92500 nM | GI50 [53]: < 10 nM | TGI [53]: > 43800 nM | GI50 [54]: > 36900 nM | TGI [54]: > 100000 nM | GI50 [55]: < 10 nM | TGI [55]: > 81200 nM | GI50 [56]: 38.7 nM | TGI [56]: > 67700 nM
